Experimental data published in article PMC5658359, “A potent small-molecule inhibitor of the DCN1-UBC12 interaction that selectively blocks cullin 3 neddylation” (Nature Communications, 2017).

Experiments:
p21, Bim, CDT1 = assay: Western blotting of cullin 1 and 4A CRL substrates in cells; type: cell-based; settings: western blot, 24 h
Text: (§1) Treated cells were lysed by RIPA buffer supplemented with protease and phosphatase inhibitors. The expression level of indicated proteins was examined by immunoblotting analysis. GAPDH was used as the loading control.

NQO1 and HO1 mRNA = assay: qRT-PCR of NRF2-regulated genes in THLE2 cells; type: cell-based; settings: THLE2, 10 µM
Text: (§2) Total RNA in treated cells was isolated with the RNeasy Mini Kit (Qiagen, Germantown, MD). RNA was reverse transcribed into complementary DNA (cDNA) using high capacity RNA-to-cDNA kit (Applied Biosystems, Carlsbad, California). […] GAPDH was used as an internal reference. […] Error bars correspond to SD from three independent experiments.

NEDD8 E1 (APP-BP1/Uba3) = biological target: T1, NEDD8 E1 (APP-BP1/Uba3) (Homo sapiens, UniProt Q8TBC4); assay: In vitro UBC12~NEDD8 thioester forming assay; type: biochemical; settings: DI-591 at concentrations up to 100 µM
T1 construct: purchased Boston Biochem
T1 sequence (Q8TBC4 1-463): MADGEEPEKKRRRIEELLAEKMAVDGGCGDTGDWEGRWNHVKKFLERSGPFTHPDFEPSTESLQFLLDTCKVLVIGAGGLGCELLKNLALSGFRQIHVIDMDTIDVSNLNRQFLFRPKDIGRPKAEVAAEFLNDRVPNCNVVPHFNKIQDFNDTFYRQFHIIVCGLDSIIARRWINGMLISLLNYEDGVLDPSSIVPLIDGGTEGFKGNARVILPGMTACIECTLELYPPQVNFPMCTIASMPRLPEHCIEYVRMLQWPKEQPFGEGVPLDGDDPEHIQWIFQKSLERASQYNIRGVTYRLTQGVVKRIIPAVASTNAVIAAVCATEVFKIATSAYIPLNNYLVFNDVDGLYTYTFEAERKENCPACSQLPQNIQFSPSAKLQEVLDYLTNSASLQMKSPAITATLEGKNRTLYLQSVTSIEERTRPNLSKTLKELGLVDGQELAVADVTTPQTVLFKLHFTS
T1 sequence (Q13564 1-534 partner): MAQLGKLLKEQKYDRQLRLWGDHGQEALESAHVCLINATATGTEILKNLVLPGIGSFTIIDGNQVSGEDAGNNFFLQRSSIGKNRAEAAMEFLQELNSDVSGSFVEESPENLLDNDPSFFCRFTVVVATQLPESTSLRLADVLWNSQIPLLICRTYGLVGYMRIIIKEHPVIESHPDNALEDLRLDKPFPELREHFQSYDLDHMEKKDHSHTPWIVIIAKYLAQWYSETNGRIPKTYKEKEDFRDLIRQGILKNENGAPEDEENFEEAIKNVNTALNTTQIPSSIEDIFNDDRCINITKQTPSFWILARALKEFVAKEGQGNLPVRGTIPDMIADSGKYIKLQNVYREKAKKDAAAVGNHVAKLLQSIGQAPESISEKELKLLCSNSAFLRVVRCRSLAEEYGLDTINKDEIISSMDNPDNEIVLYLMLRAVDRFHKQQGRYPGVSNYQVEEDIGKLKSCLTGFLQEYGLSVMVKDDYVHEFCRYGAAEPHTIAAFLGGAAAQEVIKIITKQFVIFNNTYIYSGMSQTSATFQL
Description: NEDD8, NEDD8 E1 (APP-BP1/Uba3) and UBC12 proteins were purchased from Boston Biochem. NEDD8 (10 μM), NEDD8 E1 (25 nM), and UBC12 (2 μM) were incubated in Tris-HCl (pH 7.4, 50 mM), MgCl2 (5 mM), DTT (0.5 mM) and BSA (0.1 mg/ml), with a tested compound at 25 °C for 10 min. Reactions were initiated by addition of 2 mM ATP (or distilled H2O) and ran for 5 min at 25 °C. 1 M DTT (or distilled H2O) was added to the reaction mixtures which were then kept on ice for 1 min followed by addition of SDS loading buffer (without DTT). The products were separated by SDS–PAGE, visualized by Coomassie stain and quantified by ImageLab (Bio-Rad).
1 Supplementa ry Figure 3:
3 Supplementary Figure 3. In vitro U BC12~N EDD8 thio ester forming assay.N EDD8,
4 NEDD8 E1 (APP -BP 1/Uba3) and UBC12 were purchased from Boston Biochem. 10μ M
5 NEDD8, 25nM N EDD8 E1,and 2μ M UBC12 were incubated in 50mM Tris-HCl (pH 7.4), 5mM
6 M gC l 2, 0.5mM DTT, and 0.1mg/ml BSA, with indicated compounds at 25℃ for 10min.
7 Reactions were initiated by addition o f 2mM ATP (or dH2O) and w ere run for 5min at 25℃ .
8 Reaction mixtures were t hen added with 1M DTT (or dH 2O) and kept on ice for 1min followed
9 by addition of SDS Loading buffer (without DTT). The products were s eparated b y SDS-PAGE,
10 visualized by Coomassie stain and quantified using an ImageLab imager ( Bio-Rad). […]

NRF2 mRNA = assay: qRT-PCR of NRF2 mRNA in THLE2 cells; type: cell-based; settings: THLE2, 10 µM
Text: as §2

neddylation of cullin 3 = assay: Western blotting of neddylated and un-neddylated cullin 3 in cells; type: cell-based; settings: THLE2 liver cells, DI-591 at 10 µM
Text: as §1

[1] = Equilibrium aqueous solubility, small-scale shake-flask method; settings: for solubility at 24 h: thermodynamic from solid
Description: The equilibrium aqueous solubility of an individual compound at different pH values was determined with a small-scale shake-flask method in Eppendorf tubes. Compounds were added as powder in excess to Britton-Robinson buffer at pH 2.0 or phosphate buffer at pH 7.4 until heterogeneous suspensions were obtained. Suspensions containing excessive compound powder were sonicated in a water bath for 30 min followed by incubation at room temperature with shaking for 24 h to achieve thermodynamic equilibrium. […] Supernatants obtained were filtered using Millipore MultiScreen filter plates equipped with 0.45 µm membranes. Compound concentrations in the saturated solutions were measured by UV spectroscopy at the maximum absorption wavelengths of each compound that were pre-determined by a spectrum scan.

DCN3 = biological target: T2, DCN3 (Homo sapiens, UniProt Q8IWE4); assay: Label-free BLI assay, DCN3; type: binding; settings: concentrations up to 10 µM
T2 construct: DCN2 (residues 62–259), DCN3 (residues 86–304), DCN4 (residues 102–292) and DCN5 (residues 47–237); His6-TEV (N, cleaved yes); made in house; host or cells: Rosetta2 cells (E. coli)
T2 sequence (Q8IWE4 86-304): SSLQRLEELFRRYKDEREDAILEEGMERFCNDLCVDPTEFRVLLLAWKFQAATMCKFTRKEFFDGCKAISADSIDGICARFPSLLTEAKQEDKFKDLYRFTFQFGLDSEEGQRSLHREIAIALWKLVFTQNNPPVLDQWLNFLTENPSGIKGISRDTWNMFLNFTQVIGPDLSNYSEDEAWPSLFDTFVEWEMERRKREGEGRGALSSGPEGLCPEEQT

DCN5 = biological target: T3, DCN5 (Homo sapiens, UniProt Q9BTE7); assay: Label-free BLI assay, DCN5; type: binding; settings: concentrations up to 10 µM
T3 construct: DCN2 (residues 62–259), DCN3 (residues 86–304), DCN4 (residues 102–292) and DCN5 (residues 47–237); His6-TEV (N, cleaved yes); made in house; host or cells: Rosetta2 cells (E. coli)
T3 sequence (Q9BTE7 47-237): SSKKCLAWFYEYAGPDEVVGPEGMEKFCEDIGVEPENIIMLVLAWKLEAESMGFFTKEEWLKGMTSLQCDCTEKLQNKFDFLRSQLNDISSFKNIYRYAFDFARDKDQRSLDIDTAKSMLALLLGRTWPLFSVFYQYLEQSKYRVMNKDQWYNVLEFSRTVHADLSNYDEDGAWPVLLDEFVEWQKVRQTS

[2] = test system: THLE2 cells and five additional cancer cell lines; assay: Cell viability, WST assay, panel of 6 cell lines; type: cell-based; settings: DI-591 at concentrations up to 20 µM
DCN4 = biological target: T4, DCN4 (Homo sapiens, UniProt Q92564); assay: Label-free BLI assay, DCN4; type: binding; settings: concentrations up to 10 µM
T4 construct: DCN2 (residues 62–259), DCN3 (residues 86–304), DCN4 (residues 102–292) and DCN5 (residues 47–237); His6-TEV (N, cleaved yes); made in house; host or cells: Rosetta2 cells (E. coli)
T4 sequence (Q92564 102-292): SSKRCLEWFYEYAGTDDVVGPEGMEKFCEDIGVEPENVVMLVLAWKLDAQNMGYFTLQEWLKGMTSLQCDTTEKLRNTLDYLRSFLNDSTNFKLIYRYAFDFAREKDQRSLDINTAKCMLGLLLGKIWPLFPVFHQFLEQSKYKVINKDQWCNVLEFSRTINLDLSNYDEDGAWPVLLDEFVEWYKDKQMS

[3] = test system: neddylation of cullin 1 and other cullins; assay: Western blotting of neddylated and un-neddylated cullin 1 and other cullins in cells; type: cell-based; settings: THLE2 liver cells, up to 24 h, DI-591 10 µM, MLN4924 0.3 µM
Text: as §1

NRF2 = assay: Western blotting of NRF2 protein in cells; type: cell-based; settings: western blot, 24 h
Text: as §1

Question: With `CCC(=O)N[C@@H](Cc1nc2ccc(C(C)C)cc2s1)C(=O)N[C@H](CNC(=O)CCN1CCOCC1)C1CCCCC1` [DI-591] as the compound, how does the “protein levels of p21, Bim and CDT1 (in words)” value (p21, Bim, CDT1) read?
Answer: no or minimal effect

Question: And the “mRNA levels of NQO1 and HO1 (in words)” value (NQO1 and HO1 mRNA)?
Answer: robustly increases

Question: And the “inhibition of UBC12 neddylation (E1 activity), in words” value (NEDD8 E1 (APP-BP1/Uba3))?
Answer: no such effect

Question: What about the “mRNA level of NRF2 (in words)” value (NRF2 mRNA) of the same compound?
Answer: no effect

Question: What about the “time to complete depletion of neddylated cullin 3” value (neddylation of cullin 3) of the same compound?
Answer: ≤ 5 min

Question: And the “aqueous solubility (in words)” value [1]?
Answer: excellent

Question: What about the solubility at 24 h ([1]; Britton-Robinson buffer, pH 2, aqueous buffer) of the same compound?
Answer: > 20 mM

Question: And the solubility at 24 h ([1]; Britton-Robinson buffer, pH 2.02, aqueous buffer)?
Answer: > 20 mM

Question: What about the solubility at 24 h ([1]; phosphate buffer, pH 7.4, aqueous buffer) of the same compound?
Answer: > 20 mM

Question: And the “binding to DCN3 (in words)” value (DCN3)?
Answer: no appreciable binding

Question: What about the “binding to DCN5 (in words)” value (DCN5) of the same compound?
Answer: no appreciable binding

Question: And the “cytotoxicity (in words)” value [2]?
Answer: no significant cytotoxicity

Question: What about the “binding to DCN4 (in words)” value (DCN4) of the same compound?
Answer: no appreciable binding

Question: And the “effect on neddylation of cullin 1, time course (in words)” value [3]?
Answer: no effect

Question: What about the “NRF2 protein level (in words)” value (NRF2) of the same compound?
Answer: dose dependently increases
